Data as given in patent US20260226034A1 (The Rockefeller University, priority 2023, published 2026).

The molecules below were run against NSP14 (Severe acute respiratory syndrome coronavirus 2, UniProt P0DTD1) (assay: NSP14 MTase inhibition assay at 37° C. (MTase-Glo SAH detection)). Conditions: 37° C., 0.3 nM NSP14, 2.5 μM SAM, 2.5 μM GpppA RNA; read-out: Nsp14 Mtase Inh. IC50.
Type: biochemical, SARS-CoV-2

SMILES	IC50 [nM]
Cc1c(S(=O)(=O)c2cc(Cl)c3[nH]ncc3c2)cc(C(=O)NCc2c(Cl)cnn2C)n1C [B.184]	< 0.15
Cc1c(S(=O)(=O)c2ccc3[nH]ncc3c2)cc(C(=O)NCc2c(Cl)cnn2C)n1CC(F)(F)F [B.185]	3.9
Cc1c(S(=O)(=O)c2ccc3[nH]ncc3c2)cc(C(=O)NCc2c(Cl)cnn2C)n1CC(F)F [B.186]	1.1
Cc1c(S(=O)(=O)c2ccc3[nH]ncc3c2)cc(C(=O)NCc2c(Cl)cc[nH]c2=O)n1C [B.187]	0.61
Cc1c(S(=O)(=O)c2ccc3[nH]ncc3c2)cc(C(=O)NCc2c(Cl)cnn2C)n1C1CC1 [B.188]	1.6
Cc1c(S(=O)(=O)c2ccc3[nH]ncc3c2)cc(C(=O)NCc2[nH]c(=O)ccc2F)n1C [B.189]	0.37
Cc1c(S(=O)(=O)c2ccc3[nH]ncc3c2)cc(C(=O)NCc2[nH]c(=O)ccc2Cl)n1C [B.190]	3.3
Cn1ncc(Cl)c1CNC(=O)c1cc(S(=O)(=O)c2ccc3[nH]ncc3c2)c2n1CCC2 [B.191]	8.6
Cn1ncc(Cl)c1CNC(=O)c1cc(S(=O)(=O)c2cccc(C#N)c2)c2n1CCC2 [B.192]	98
Cc1c(S(=O)(=O)c2cc(Cl)cc(C#N)c2)cc(C(=O)NCc2c(Cl)cnn2C)n1C [B.193]	6.4
COCCn1c(C(=O)NCc2c(Cl)cnn2C)cc(S(=O)(=O)c2cc(Cl)c3[nH]ncc3c2)c1C [B.194]	1.1
Cc1c(S(=O)(=O)c2cc(Cl)c3[nH]ncc3c2)cc(C(=O)NS(=O)(=NCC(F)(F)F)c2ccccc2)n1C (stereo not drawn) [B.195]	12
Cc1c(S(=O)(=O)c2ccc3[nH]ncc3c2)cc(C(=O)NCCCOc2ncc(F)cn2)n1C [B.196]	18
Cc1c(S(=O)(=O)c2ccc3[nH]ncc3c2)cc(C(=O)NCC2(COc3ncc(F)cn3)CC2)n1C [B.197]	2.7
Cc1c(S(=O)(=O)c2ccc3[nH]ncc3c2)cc(C(=O)NCCN(C)c2ncc(F)cn2)n1C [B.198]	16
